± gives the standard deviation.
How the values were obtained:
[1] = chemical recovery from spiked human plasma; higher = better extraction; conditions: pooled human plasma
[2] = chemical recovery by SPE of plasma after PDMS sampling; higher = better extraction; conditions: pooled human plasma, extraction method: HLB SPE of plasma after PES
[3] = extraction method: SPE only (HLB 96-well), PES comparison experiment
[4] = extraction method: PES+SPE (3 d PDMS equilibration then HLB SPE)
[5] = extraction method: SPE only (HLB 96-well)
[6] = extraction method: solvent precipitation (ACN + hexane)
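For chemical recovery by SPE of plasma after PDMS sampling in this document: over 400 spiked chemicals quantified by LC-HRMS or GC-HRMS via internal standard calibration, recovery relative to spike mix added to unspiked plasma extract to correct matrix effects.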

Structure (SMILES)	chemical recovery [1, 3]	chemical recovery by SPE of plasma ([2]; equilibration time (d): 1)	chemical recovery by SPE of plasma ([2]; equilibration time (d): 3)	chemical recovery by SPE of plasma ([2]; equilibration time (d): 6)	chemical recovery [1, 4]	chemical recovery [1, 5]	chemical recovery [1, 6]
C[C@]12C=CC(=O)C=C1CC[C@H]1[C@@H]3C[C@@H](O)[C@](O)(C(=O)CO)[C@@]3(C)C[C@H](O)[C@@]12F [Triamcinolone]	50.5 ± 3.2%	55.2 ± 12%	58.4 ± 5.8%	54.9 ± 10%			
CCCCNS(=O)(=O)c1ccccc1 [N-Butylbenzenesulfonamide]		11.4 ± 0.85%	17.5 ± 1.5%	11.5 ± 1.4%	45.4 ± 6.6%	48.7 ± 6.1%	
COCC(C)N(C(=O)C(=O)O)c1c(C)csc1C (stereo not drawn) [Dimethenamid OA]	51.7 ± 4.2%	52.2 ± 8.1%	58.9 ± 3.8%	51.8 ± 2.6%			
CCCCNc1ccc(C(=O)OCCN(C)C)cc1 [Tetracain]		0.00668 ± 0.0083%			0.105 ± 0.0078%	2.67 ± 1.9%	
CCN(CCCCOC(=O)c1ccc(OC)c(OC)c1)C(C)Cc1ccc(OC)cc1 (stereo not drawn) [Mebeverine]	38.1 ± 4.5%	0.287 ± 0.15%	0.295 ± 0.096%	0.145 ± 0.0059%			69.6 ± 4.1%
CC(CN1c2ccccc2Sc2ccccc21)N(C)C (stereo not drawn) [Promethazin]	43.8 ± 7.1%	0.16 ± 0.11%	0.172 ± 0.13%	0.00932 ± 0.01%	0.204 ± 0.12%	55.2 ± 14%	74.2 ± 4.5%
O=C(O)c1cc(Oc2ccc(Cl)cc2Cl)ccc1[N+](=O)[O-] [Bifenox free acid]	36.6 ± 6.7%		40.7 ± 16%		38.2 ± 3.9%	30.6 ± 3.6%	65.8 ± 3.1%
Clc1ccc(-c2ccc(Cl)cc2Cl)cc1 [PCB28]	20.3 ± 4.4%	1.11 ± 1%	1.62 ± 0.27%	1.51 ± 0.26%		5.86 ± 1.6%	
Nc1ccc(-c2ccc(N)cc2)cc1 [Benzidine]	5.89 ± 3%	6.25 ± 0.9%	6.11 ± 1.1%	3.81 ± 0.98%	0.64 ± 0.073%	13.2 ± 2%	38.3 ± 7.4%
NC(=O)N1c2ccccc2C(O)C(O)c2ccccc21 (stereo not drawn) [10,11-Dihydro-10,11-dihydroxycarbamazepine]	48.4 ± 4.8%		69.9 ± 7.5%		45.5 ± 5.2%	44.9 ± 4.7%	71 ± 2.8%
O=[N+]([O-])c1ccc(O)cc1 [4-Nitrophenol]	64.5 ± 4.6%	57.4 ± 7.2%	59.3 ± 2.9%	55.1 ± 4.6%	48.9 ± 3%	41.5 ± 6.3%	65.1 ± 6.7%
C1=Cc2cccc3cccc1c23 [Acenaphthylene]			10.5 ± 4.6%	2.28 ± 8%		3.51 ± 0.93%	
CC(=O)CC(c1ccccc1)c1c(O)c2ccccc2oc1=O (stereo not drawn) [Warfarin]	56.6 ± 4.3%	62.2 ± 10%	66.6 ± 3.5%	62.8 ± 4.6%	50 ± 3.2%	44.9 ± 2.1%	72.5 ± 6.1%
CC/C(=C(\c1ccccc1)c1ccc(OCCN(C)C)cc1)c1ccccc1 [Tamoxifen]	38.5 ± 11%	0.427 ± 0.08%	0.167 ± 0.14%	0.104 ± 0.056%	0.265 ± 0.056%	39.4 ± 8.3%	
c1ccc2c(c1)c1cccc3ccc4cccc2c4c31 [Benzo(e)pyrene]		1.45 ± 1.3%	1.37 ± 1.2%	1.06 ± 1.8%		2.35 ± 0.68%	57.7 ± 6.1%
CC[C@H]1OC(=O)C[C@@H](O)[C@H](C)[C@@H](O[C@@H]2O[C@H](C)[C@@H](O[C@H]3C[C@@](C)(O)[C@@H](O)[C@H](C)O3)[C@H](N(C)C)[C@H]2O)[C@@H](CC=O)C[C@@H](C)C(=O)/C=C/C(C)=C/[C@@H]1CO[C@@H]1O[C@H](C)[C@@H](O)[C@@H](OC)[C@H]1OC [TylosinCH4O]	33.9 ± 4.8%	30.2 ± 3.2%	35.1 ± 4.1%	33 ± 2.3%			
c1ccc2c(c1)cc1ccc3cccc4ccc2c1c34 [Benzo(a)pyrene]		1.26 ± 1.1%				4.36 ± 4%	99.1 ± 12%
CCC1=C(C)CN(C(=O)NCCc2ccc(S(=O)(=O)NC(=O)NC3CCC(C)CC3)cc2)C1=O (stereo not drawn) [Glimepiride]	42.6 ± 4.8%	46.6 ± 3.4%	45.2 ± 1.8%	42.1 ± 3%	36.8 ± 4.8%	32 ± 1.9%	71.4 ± 5.3%
c1ccc2cc3c(ccc4ccccc43)cc2c1 [Benz(a)anthracene]			8.41 ± 7.3%	4.31 ± 7.5%		1.06 ± 0.29%	20.2 ± 2.8%
CC(C)NCC(O)c1ccc(NS(C)(=O)=O)cc1 (stereo not drawn) [Sotalol]			21.5 ± 3.9%	30.9 ± 12%		20.9 ± 5.4%	75 ± 2.5%
CC(C)(c1cc(Br)c(O)c(Br)c1)c1cc(Br)c(O)c(Br)c1 [Tetrabromobisphenol A]	29.4 ± 10%		30.4 ± 11%				14.4 ± 1.4%
CCCCCOC(=O)Nc1nc(=O)n([C@@H]2O[C@H](C)[C@@H](O)[C@H]2O)cc1F [Capecitabine]	47.5 ± 7.2%	44.1 ± 5.1%	48.6 ± 5.5%	44.2 ± 1.7%			
Clc1ccc(Cl)c(-c2cc(Cl)ccc2Cl)c1 [PCB52]	16.2 ± 3.2%	1.19 ± 0.83%	1.25 ± 0.28%	1.09 ± 0.3%	48.5 ± 8.4%	3.67 ± 0.85%	

From the supplement of paper PMC10702517
